From publication PMC8151276, “An Integrated Approach toward NanoBRET Tracers for Analysis of GPCR Ligand Engagement” (Molecules, 2021) come the findings set out here.

Common to all, as to assay type: binding
One assay has as its target T1, CHRM5 (Homo sapiens, UniProt P08912).
T1 construct: purchased Promega (in-house HiBiT-GPCR construct library, NanoBRET)
T1 sequence (P08912 1-532): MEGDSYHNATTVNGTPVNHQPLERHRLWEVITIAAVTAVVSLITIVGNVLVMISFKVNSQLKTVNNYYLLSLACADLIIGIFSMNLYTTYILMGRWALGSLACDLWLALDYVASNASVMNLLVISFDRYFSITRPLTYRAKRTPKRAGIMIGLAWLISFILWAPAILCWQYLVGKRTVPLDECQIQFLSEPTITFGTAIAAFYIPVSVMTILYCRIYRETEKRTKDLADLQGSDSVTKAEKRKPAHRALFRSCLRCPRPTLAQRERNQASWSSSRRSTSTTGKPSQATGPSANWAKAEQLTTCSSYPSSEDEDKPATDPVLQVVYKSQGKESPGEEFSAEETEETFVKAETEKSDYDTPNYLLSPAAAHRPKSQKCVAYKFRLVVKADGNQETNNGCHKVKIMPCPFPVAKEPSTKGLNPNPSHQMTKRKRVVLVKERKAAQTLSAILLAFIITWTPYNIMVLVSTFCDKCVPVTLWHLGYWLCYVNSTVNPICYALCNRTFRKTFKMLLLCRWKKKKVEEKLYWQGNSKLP
The assay is described as follows: NanoBRET screen HiBiT-CHRM5 in HEK293. On the procedure: (§1) Each tracer candidate was screened across the entire library of HiBiT-GPCR constructs using NanoBRET as the detection modality. As depicted in Figure 4A, the specificity of interactions was evaluated through decrease in BRET due to competitive displacement of a bound tracer by excess parental compound. Each tracer was analyzed for binding to each HiBiT-GPCR fusion in the absence and in the presence of competing parental compound. Briefly, HEK293 cells were transfected with HiBiT-GPCR constructs diluted into promoterless DNA to reduce expression and maximize translocation to the cell surface. Each tracer candidate was then screened at concentrations of 1 μM and 0.1 μM across cells expressing these fusions. Cells were treated for 1.5 h with tracer either alone or in the presence of 20 μM competing parental compound (i.e., control). BRET was measured upon addition of purified LgBiT and subsequent complementation with HiBiT genetically fused to a GPCR. The specificity of interactions was assessed through a decrease in BRET signal due to competitive displacement of the bound tracer. To further gauge the robustness of these interactions, the fold response over the control (i.e., BRETtracer/BRETcontrol) was calculated. We chose a 1.5-fold response, which translates to ≥7-fold signal over noise as the minimal threshold required to score an interaction as positive.
(§2) HiBiT-GPCR DNA constructs were diluted in 10 mM Tris pH 8 to a final concentration of 0.01 μg/μL, arrayed in 96-well plates and stored at −20 °C. For transfection, HEK293 cells were suspended in Opti-MEM (without phenol red) supplemented with 2% fetal bovine serum (Seradigm) and 100 units/mL penicillin–streptomycin (Gibco) at a final concentration of 220,000 cells/mL and dispensed into white 96-well plates at 90 μL/well. Subsequent transfections and screens were carried using an Agilent Bravo Automated Liquid Handling Platform. First, the 96-well HiBiT DNA arrays were diluted 25-fold in Opti-MEM (without serum or phenol red) to a final concentration of 0.0004 μg/μL and 20 μL of the diluted DNAs were transferred into new 96-well plates. Next, promoterless carrier DNA (1 μg/μL) was diluted 25-fold (0.04 μg/μL) and then dispensed into the diluted arrays at 20 μL/well. Following brief mixing, Viafect transfection reagent (Promega) diluted 16-fold into Opti-MEM was dispensed into the plates at 40 μL/well. After mixing by pipetting, plates were incubated for 10 min on the pipetting station deck. The DNA-transfection reagent complexes were then added to plates containing cells. To facilitate the screen, 10 μL of DNA-transfection reagent complexes were added in duplicates to the top 4 and bottom 4 rows, resulting in two identical 48-well arrays per plate. Plates with transfected cells were incubated for 18–20 h at 37 °C/5% CO2. A screen of each tracer across the entire library using two different concentrations requires duplicate plates of transfected cells. Depending on the number of tracers being screened, transfections can be scaled up using the same ratios. The next day, for each tracer, four 20× screening solutions in tracer dilution buffer (Promega) were prepared: two duplicates at final concentration of 20 μM and two duplicates at a final concentration of 2 μM. […] The four resulting solutions were diluted 4-fold in Opti-MEM without serum or phenol red to generate 5× solutions (5 µM and 0.5 µM tracer +/− 100 μM competing compound). To screen the library, a BioTek MultiFlo FX liquid dispenser was used to dispense 22.5 µL of tracer solution to the top 4 rows and 22.5 µL tracer + competing compound solution to the 4 bottom rows. Plates were briefly mixed on an orbital shaker and incubated for 1.5 h at room temperature. […] Plates were briefly mixed on an orbital shaker and incubated for 15 min to allow complementation.
A general note: In BRET a luciferase serves as donor, and the signal depends on an acceptor being close.

A further assay deals with T2, DRD3 (Homo sapiens, UniProt P35462).
T2 construct: purchased Promega (in-house HiBiT-GPCR construct library, NanoBRET)
T2 sequence (P35462 whole entry): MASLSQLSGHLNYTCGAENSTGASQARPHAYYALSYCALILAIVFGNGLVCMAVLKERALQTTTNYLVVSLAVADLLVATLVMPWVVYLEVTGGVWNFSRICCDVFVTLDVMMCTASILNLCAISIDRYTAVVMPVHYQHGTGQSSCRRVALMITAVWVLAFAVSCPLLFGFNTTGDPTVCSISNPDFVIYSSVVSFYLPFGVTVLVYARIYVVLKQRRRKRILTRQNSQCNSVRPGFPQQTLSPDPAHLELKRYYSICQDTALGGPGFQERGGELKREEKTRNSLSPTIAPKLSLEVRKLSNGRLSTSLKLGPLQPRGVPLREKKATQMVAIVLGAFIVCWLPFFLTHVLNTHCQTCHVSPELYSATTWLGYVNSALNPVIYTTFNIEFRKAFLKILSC
Description: NanoBRET screen HiBiT-DRD3 in HEK293. How it is done:
as §1, §2

For another assay, the target named is T3, NPSR1 (Homo sapiens, UniProt Q6W5P4).
T3 construct: purchased Promega (in-house HiBiT-GPCR construct library, NanoBRET)
T3 sequence (Q6W5P4 1-371): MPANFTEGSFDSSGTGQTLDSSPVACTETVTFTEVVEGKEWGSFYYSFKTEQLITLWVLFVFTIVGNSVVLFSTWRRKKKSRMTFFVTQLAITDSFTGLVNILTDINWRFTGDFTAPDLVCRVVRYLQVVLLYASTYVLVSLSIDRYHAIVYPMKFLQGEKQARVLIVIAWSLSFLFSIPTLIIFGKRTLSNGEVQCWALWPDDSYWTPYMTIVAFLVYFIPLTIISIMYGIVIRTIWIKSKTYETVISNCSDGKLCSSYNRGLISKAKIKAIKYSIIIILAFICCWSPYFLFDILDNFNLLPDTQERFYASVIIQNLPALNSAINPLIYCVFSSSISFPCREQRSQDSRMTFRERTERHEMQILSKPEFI
Description: NanoBRET screen HiBiT-NPSR1 in HEK293. How it is done: as §1, §2

[1] abbreviates: tracer at 0.1μM, listed as amitriptyline-b-2-NB590.
Where [2] appears, read: tracer at 1μM, listed as amitriptyline-b-2-NB590.

`CN1CCN(C2=Nc3cc(Cl)ccc3N(CC(=O)NCCOCCOCCOCCOCCNC(=O)CCc3ccc4n3[B-](F)(F)[N+]3=C(c5ccc[nH]5)C=CC3=C4)c3ccccc32)CC1` [Clozapine-c-2-NB590]: the “NanoBRET Fold Response” value came out at 1.00 at CHRM5 (CHRM5, 0.1μM tracer); 0.86 on CHRM5 (CHRM5, 1μM tracer); 0.96 at DRD3 (DRD3, 0.1μM tracer); 0.76 on DRD3 (DRD3, 1μM tracer); 1.02 at NPSR1 (NPSR1, 0.1μM tracer); 1.02 at NPSR1 (NPSR1, 1μM tracer).

On to `N#CN=C(NCCCOc1cccc(CN2CCCCC2)c1)NCCNC(=O)CCOCCOCCOCCOCCNC(=O)CCc1ccc2n1[B-](F)(F)[N+]1=C(c3ccc[nH]3)C=CC1=C2` [Aminopotentidine-2-NB590], for which the “NanoBRET Fold Response” value came out at 1.02 at CHRM5 (CHRM5, tracer 0.1μM); 1.10 at CHRM5 (CHRM5, tracer 1μM); 1.25 at DRD3 (DRD3, tracer 0.1μM); 1.17 at DRD3 (DRD3, tracer 1μM); 0.99 at NPSR1 (NPSR1, tracer 0.1μM); 1.01 on NPSR1 (NPSR1, tracer 1μM).

As for `COc1ccc2c(n1)c(CCNC(C)=O)cn2CCNC(=O)CCc1ccc2n1[B-](F)(F)[N+]1=C(c3ccc[nH]3)C=CC1=C2` [Azamelatonin-1-NB590], the “NanoBRET Fold Response” value on CHRM5 (0.1μM tracer) stood at 0.89; on CHRM5 (1μM tracer) it was 1.23; on DRD3 (0.1μM tracer), 1.14; at DRD3 (1μM tracer), 1.27; at NPSR1 (0.1μM tracer), 0.96; at NPSR1 (1μM tracer), 0.84.

Consider `CC(C)N(CC[C@H](c1ccccc1)c1cc(CCNC(=O)c2ccc(CNC(=O)CCc3ccc4n3[B-](F)(F)[N+]3=C(c5ccc[nH]5)C=CC3=C4)cc2)ccc1O)C(C)C` [Tolterodine-BZ-NB590], for which the “NanoBRET Fold Response” value was found to be 2.88 at CHRM5 (CHRM5, tracer 0.1μM); 1.94 at CHRM5 (CHRM5, tracer 1μM); 0.91 at DRD3 (DRD3, tracer 0.1μM); 1.25 at DRD3 (DRD3, tracer 1μM); 1.12 on NPSR1 (NPSR1, tracer 0.1μM); 0.99 on NPSR1 (NPSR1, tracer 1μM).

As for `O=C(CCc1ccc2n1[B-](F)(F)[N+]1=C(c3ccc[nH]3)C=CC1=C2)NCCOCCOCCNC(=O)OCCOCCN1CCN(C2=Nc3ccccc3Sc3ccccc32)CC1` [Quetiapine-a-2-NB590], the “NanoBRET Fold Response” value at CHRM5 (CHRM5, tracer 0.1μM) came to 1.18; on CHRM5 (CHRM5, tracer 1μM), 1.36; at DRD3 (DRD3, tracer 0.1μM), 1.56; on DRD3 (DRD3, tracer 1μM) it was 1.98; on NPSR1 (NPSR1, tracer 0.1μM) it was 0.87; on NPSR1 (NPSR1, tracer 1μM), 0.90.

Turning to `Cc1cc2c(s1)Nc1ccccc1N=C2N1CCN(CCCNC(=O)CCOCCOCCOCCOCCNC(=O)CCc2ccc3n2[B-](F)(F)[N+]2=C(c4ccc[nH]4)C=CC2=C3)CC1` [Olanzapine-a-2-NB590], the “NanoBRET Fold Response” value on CHRM5 (CHRM5, tracer 0.1μM) stood at 1.05; on CHRM5 (CHRM5, tracer 1μM), 1.00; on DRD3 (DRD3, tracer 0.1μM), 1.74; at DRD3 (DRD3, tracer 1μM), 2.07; at NPSR1 (NPSR1, tracer 0.1μM), 1.01; at NPSR1 (NPSR1, tracer 1μM), 1.17.

`CN(C)CCC=C1c2ccccc2CCc2ccc(C(=O)NCCNC(=O)CCOCCOCCOCCOCCNC(=O)CCc3ccc4n3[B-](F)(F)[N+]3=C(c5ccc[nH]5)C=CC3=C4)cc21` [Amitriptyline-b-2-NB590]: the “NanoBRET Fold Response” value on CHRM5 (setting [1]) stood at 3.47; on CHRM5 (setting [2]), 4.23; on DRD3 (setting [1]) it was 1.68; at DRD3 (setting [2]) it was 1.25; at NPSR1 (setting [1]), 0.95; on NPSR1 (setting [2]), 1.15.

With `O=C(CCOCCOCCOCCOCCNC(=O)CCc1ccc2n1[B-](F)(F)[N+]1=C(c3ccc[nH]3)C=CC1=C2)NCCCN1CCN(C2=Nc3cc(Cl)ccc3Nc3ccccc32)CC1` [Clozapine-a-2-NB590], the “NanoBRET Fold Response” value on CHRM5 (CHRM5, 0.1μM tracer) came to 1.10; at CHRM5 (CHRM5, 1μM tracer), 0.91; on DRD3 (DRD3, 0.1μM tracer) it was 2.22; on DRD3 (DRD3, 1μM tracer) it was 2.49; on NPSR1 (NPSR1, 0.1μM tracer) it was 0.93; on NPSR1 (NPSR1, 1μM tracer), 1.15.

Take `CN1CCN(C2=Nc3cc(Cl)ccc3Nc3ccc(CNC(=O)CCOCCOCCOCCOCCNC(=O)CCc4ccc5n4[B-](F)(F)[N+]4=C(c6ccc[nH]6)C=CC4=C5)cc32)CC1` [Clozapine-b-2-NB590]: the “NanoBRET Fold Response” value on CHRM5 (CHRM5, 0.1μM tracer) turned out to be 1.00; at DRD3 (DRD3, 0.1μM tracer), 1.54; at DRD3 (DRD3, 1μM tracer), 2.63; at NPSR1 (NPSR1, 0.1μM tracer), 1.05; on NPSR1 (NPSR1, 1μM tracer), 0.98.
